How the values were obtained:
[1] = Pharmacokinetic study in plasma after oral administration; assay type: in vivo, male SD rats; details: 30 mg/kg; for AUC(0-t) / Cmax / Tmax / half-life: vehicle water
Protocol: In this example, pharmacokinetic studies are performed using the form A of the HCl-salt of Q702 and the free base (FB) thereof in plasma, following oral administration of such form A and free base to male SD rats.
Appropriate amounts of the form A of Q702 HCl or of free base were accurately weighed and mixed with appropriate volume of vehicle (water) to get a clear solution or uniform suspension. Male SD rats were dosed with a nominal dose of 30 mg/kg body weight. After dosing, 0.2 mL blood was collected per time point at time points o h, 0.083 h, 0.25 h, 0.5 h, 1 h, 2 h, 4 h, 8 h, 12 h, and 24 h. For such blood collection, blood was collected from the jugular vein or other suitable site of each animal into pre-chilled plastic microcentrifuged tubes containing 5 μL of 1000 IU heparin Na as anti-coagulant. Blood samples were processed for plasma by centrifugation at approximately 4° C., 3200 g for ten minutes. Plasma was collected and transferred into pre-labelled polypropylene tubes, snap-frozen over dry ice and kept at −60° C. or lower until LC-MS/MS-analysis was performed. LC-MS/MS methodology was performed using a calibration curve with at least 6 non-zero calibration standards.
Plasma concentrations versus time were plotted and analysed by non-compartmental approaches using the Phoenix WinNonlin 6.3 software program. Related pharmacokinetic parameters were calculated according to dosing route, e. g.

[2] = Solubility estimation by aliquot addition in solvents; assay type: physicochemical; details: organic solvent or mixture, thermodynamic from solid
Protocol: The aliquot volumes were typically 100-1000 μL. Complete dissolution of the test material was determined by visual inspection. The solubility was estimated from these experiments based on the total solvent used to provide complete dissolution. […] From the infrared (IR) transmission data of the sample vials, dissolution and precipitation events were recorded as the point of complete transmission of IR and the onset of turbidity by IR respectively. […] Any recoverable solids were analyzed by XRPD. […] HCl salt was estimated in 9 solvent systems using the aliquot addition method.

physchem = details: pH 6.8, water, thermodynamic from solid
Protocol: (§1) Solubility was measured by a) solubility estimation by aliquot addition and b) HPLC: • a) Solubility estimation by aliquot-addition
(§2) Samples were held at ambient temperature for 18 hours to maximize the chance of precipitation. Any recoverable solids were analyzed by XRPD.
(§3) The HPLC method used to determine equilibrium solubility in a variety of solvents is outlined. […] A phenomenex Kinetex column was used with a particle size of 2.6 μm.

[3] = Aqueous solubility of crystalline salts of Q702 (slurried overnight in deionised water, HPLC); details: crystalline salts slurried overnight in deionised water (pH = 6.8); for pH of solution: solution pH measured
Protocol: as §1, §2, §3

[4] = Humidity stress using amorphous material; assay type: physicochemical; details: 6 days
Text: X-ray amorphous material generated from freeze drying was exposed to various controlled humidity conditions for 6 days before analysis by XRPD. Both samples remained as amorphous material.

[5] = Thermal stressing of amorphous Q702 HCl salt; assay type: physicochemical; details: 50° C., 7 days, under nitrogen in a sealed vial
[6] = Dynamic Vapour Sorption (DVS) hygroscopicity; assay type: physicochemical; details: for total weight gain between 40-80% RH: DVS isothermal plot, 25° C.
Protocol: Dynamic Vapour Sorption (DVS) was performed using a Hiden Analytical Instruments IGAsorp Vapour Sorption Balance. Approximately 30 mg of sample was placed into a wire-mesh vapour sorption balance pan, loaded into the IGAsorp vapour sorption balance and held at 25° C.±0.1° C. The sample was subjected to a step profile from o to 90% RH at 10% increments, followed by desorption from 90% RH to 0% RH at 10% increments. The equilibrium criterion was set to 99.0% step completion within a minimum of 60 minutes and a maximum of 5 hours for each increment. The weight change during the sorption cycle was monitored, allowing for the hygroscopic nature of the sample to be determined. The data collection interval was in seconds.

[7] = Stress at 40° C./75% relative humidity for 15 days; assay type: physicochemical; details: 40° C./75% RH
Protocol: HCl form C was stressed at 40° C./75% relative humidity for 15 days.
Form A was stressed at 40° C./75% for 15 days. […] Solvent was not detected.

[8] = Long term stability of Form A of Q702 HCl salt; assay type: physicochemical
Protocol: Form A of […] HCl salt was tested for long term stability to 24 months.

[9] = Humidity stress using crystalline material (HCl form C); assay type: physicochemical; details: 8 days
Protocol: Approximately 25 mg of […] […] HCl form C material and were stressed for 8 days. All samples remained as […] HCl form C material.

`CCCn1cc(OCC(F)(F)F)c(C(=O)Nc2ccc(Oc3ccnc4cc(OC)c(OC)cc34)cn2)n1` [Q702 free base, N-(5-((6,7-dimethoxyquinolin-4-yl)oxy)pyridin-2-yl)-1-propyl-4-(2,2,2-trifluoroethoxy)-1H-pyrazole-3-carboxamide] gave an AUC(0-t) ([1]; male, SD, rat, plasma) of 323 µg·h/mL, a Cmax ([1]; male, SD, rat, plasma) of 33800 ng/mL and a Tmax ([1]; male, SD, rat, plasma) of 3.33 h. The half-life ([1]; male, SD, rat, plasma) was 10.9 h.

For `CCCn1cc(OCC(F)(F)F)c(C(=O)Nc2ccc(Oc3ccnc4cc(OC)c(OC)cc34)cn2)n1.Cl` [Q702 HCl salt, N-(5-((6,7-dimethoxyquinolin-4-yl)oxy)pyridin-2-yl)-1-propyl-4-(2,2,2-trifluoroethoxy)-1H-pyrazole-3-carboxamide hydrochloride], the solubility ([2]; Acetone, 20° C., read-out: Solubility Range) was under 20 mg/mL, the solubility ([2]; Acetonitrile, 20° C., read-out: Solubility Range) was under 20 mg/mL and the solubility ([2]; Dichloromethane, 20° C., read-out: Solubility Range) was 66 to 100 mg/mL. For the same molecule, the solubility ([2]; Dimethyl sulfoxide, 20° C., read-out: Solubility Range) was over 201 mg/mL, the solubility ([2]; Ethanol, 20° C., read-out: Solubility Range) was 67 to 101 mg/mL and the solubility ([2]; Ethyl acetate, 20° C., read-out: Solubility Range) was under 20 mg/mL. The solubility ([2]; Methanol, 20° C., read-out: Solubility Range) was 49 to 66 mg/mL, the solubility ([2]; Methyl tert-butyl ether, 20° C., read-out: Solubility Range) was under 20 mg/mL and the solubility ([2]; Tetrahydrofuran, 20° C., read-out: Solubility Range) was under 20 mg/mL. It also gave a solubility ([2]; in four of the 9 solvents at ambient temperature, read-out: solubility) of over 20 mg/mL and a solubility (physchem) of 1.95 mg/mL.

With Tosylate the “Aq Solub” value [3] was 0.026 mg/mL and the pH of solution [3] was 4.26.

With `CCCn1cc(OCC(F)(F)F)c(C(=O)Nc2ccc(Oc3ccnc4cc(OC)c(OC)cc34)cn2)n1.Cl` [amorphous Q702 HCl salt] the “XRPD after humidity stress” value ([4]; 40° C./75% RH stress) was “amorphous”, the “XRPD after humidity stress” value ([4]; 59% RH stress) was “amorphous” and the “XRPD after thermal stress” value ([5]; listed as Amorphous Q702 HCl salt) was “remained amorphous”. The “XRPD after thermal stress” value ([5]; listed as amorphous) was “amorphous”.

In the case of `CCCn1cc(OCC(F)(F)F)c(C(=O)Nc2ccc(Oc3ccnc4cc(OC)c(OC)cc34)cn2)n1.Cl` [Q702 HCl form A, N-(5-((6,7-dimethoxyquinolin-4-yl)oxy)pyridin-2-yl)-1-propyl-4-(2,2,2-trifluoroethoxy)-1H-pyrazole-3-carboxamide hydrochloride], the “total weight gain between 40-80% RH” value ([6]; hydrochloride) is reported as 0.5 % w/w, the XRPD after stress ([7]; hydrochloride) is reported as “remained as form A” and the Assay ([8]; 25 ± 2° C./60 ± 5% RH, 12 M) is reported as 94.0%. For the same molecule, the Purity ([8]; 25 ± 2° C./60 ± 5% RH, 12 M) was 100.0%, the XRPD ([8]; 25 ± 2° C./60 ± 5% RH, 12 M) was “Consistent” and the Assay ([8]; 25 ± 2° C./60 ± 5% RH, 24 M) was 94.6%. For the same molecule, the Purity ([8]; 25 ± 2° C./60 ± 5% RH, 24 M) was 99.9%, the XRPD ([8]; 25 ± 2° C./60 ± 5% RH, 24 M) was “Consistent” and the Assay ([8]; 40 ± 2° C./75 ± 5% RH, 6 M) was 94.8%. The Purity ([8]; 40 ± 2° C./75 ± 5% RH, 6 M) was 99.9%, the XRPD ([8]; 40 ± 2° C./75 ± 5% RH, 6 M) was “Consistent” and the Assay ([8]; Initial) was 95.9%. For the same molecule, the Purity ([8]; Initial) was 99.9%, the XRPD ([8]; Initial) was “Consistent” and the “long term stability (XRPD results)” value ([8]; tested to 24 months) was “stable to 24 months”. The “plasma exposure level higher than that of the free base (mean AUC-values)” value ([1]; versus Q702 free base) was 33%, the AUC(0-t) ([1]; male, SD, rat, plasma) was 430 µg·h/mL and the Cmax ([1]; male, SD, rat, plasma) was 37000 ng/mL. It also gave a Tmax ([1]; male, SD, rat, plasma) of 2.83 h, a half-life ([1]; male, SD, rat, plasma) of 10.3 h and a bioavailability ([1]; male, SD, rat, plasma, test = form A of HCl-salt, ref = free base of Q702, read-out: relative bioavailability) of 144%.

In the case of `O=C(O)CCC(=O)C(=O)O` [Ketoglutarate], the pH of solution [3] is reported as 2.91.

With `CCCn1cc(OCC(F)(F)F)c(C(=O)Nc2ccc(Oc3ccnc4cc(OC)c(OC)cc34)cn2)n1.Cl` [HCl form C] the “% Weight change” value ([9]; 40° C./75% RH stress) was −1.96%, the weight loss ([9]; 40° C./75% RH) was 1.96% and the “% Weight change” value ([9]; 75% RH stress) was −11.05%. The weight loss ([9]; 75% RH stress) was 11.05%, the “% Weight change” value ([9]; 98% RH stress) was “+2.99%” and the “% Weight change” value ([9]; 98% RH stress, listed as Q702 HCl form C) was 2.99%. The “total weight gain between 40-80% RH” value [6] was 0.7 % w/w, the “XRPD analysis of post DVS sample” value ([6]; after DVS analysis) was “no physical change in the sample was detected” and the “hygroscopicity, European Pharmacopoeia classification” value ([6]; based on DVS weight gain 40-80% RH) was “slightly hygroscopic”. The XRPD after stress [7] was “remained as HCl salt form C”.

From patent publication US20250188058A1, “NEW FORMS OF N-(5-((6,7-DIMETHOXYQUINOLIN-4-YL)OXY)PYRIDIN-2-YL)-1-PROPYL-4-(2,2,2-TRIFLUOROETHOXY)-1H-PYRAZOLE-3-CARBOXAMIDE HYDROCHLORIDE” (QURIENT CO., LTD., priority 2022, published 2025)
